{"source": "patent US20060189624A1", "about": "“Novel combination for treating sexual dysfunction” (Bayer Aktiengesellschaft, priority 1999, published 2006)", "test_system": "adult male rabbits of the animal strain HsdHHL Watanables", "experiment": "Erection (length of the protruding penis) in hypercholesterolemic rabbits after cGMP PDE inhibitor, with or without antilipemic pretreatment", "format": "in vivo, rabbit", "conditions": "cerivastatin sodium 1 mg/kg s.c. for 7 days", "procedure": "In a placebo-controlled study, twelve adult male rabbits of the animal strain HsdHHL Watanables having a body weight of 3-5 kg, which, owing to breeding, suffer from hypercholesterolemia and arteriosclerosis, were treated with a selective cGMP PDE inhibitor (3 mg/kg, intravenously).\nThe animals had free access to water and, for 2 hours per day, to feed. The animals were kept in a 10/14 hour day/night rhythm (light on from 8 am onwards), and the ambient temperature was 22 to 24° C.\nThe selective cGMP PDE inhibitor used was 2-[2-ethoxy-5-(4-ethyl-piperazine-1-sulfonyl)-phenyl]-5-methyl-7-propyl-3H-imidazo[5,1-f][1,2,4]triazin-4-one hydrochloride trihydrate (Ex. 336 of WO-A-99/24433).\nFor intravenous injection, the PDE inhibitor was dissolved in physiological saline (0.9% by volume).\nFor seven days prior to the treatment with the PDE inhibitor, i.e. for 7 successive days, an antilipemic, i.e. cerivastatin sodium (i.e. the monosodium salt of cerivastatin) was administered subcutaneously to six of the twelve rabbits (1 mg/kg of body weight, cerivastatin sodium dissolved in physiological saline). […]\nThe erection was evaluated by measuring the length of the protruding penis using a vernier caliper. […] To this end, the animals were in each case removed from the cage, held by neck hair and hind legs, turned onto their back and measured. […]", "data": [{"smiles": "COCc1c(C(C)C)nc(C(C)C)c(/C=C/[C@@H](O)C[C@@H](O)CC(=O)O)c1-c1ccc(F)cc1", "note": "[cerivastatin sodium]", "values": [{"measurement": "erection 1 day after the cerivastatin sodium pretreatment had ended compared with 3 days after (FIG. 2, upper vs middle curve)", "setting": "then PDE inhibitor 3 mg/kg i.v., 1 day vs 3 days after end of pretreatment", "result": "still more pronounced"}, {"measurement": "erection after administration of the PDE inhibitor, compared with rabbits not pretreated with the antilipemic (FIG. 2)", "setting": "then PDE inhibitor (Ex. 336 of WO-A-99/24433) 3 mg/kg i.v. 1 day and 3 days after pretreatment ended, measured 5-120 min, control saline pretreatment", "result": "considerably more pronounced erection"}]}]}
